Type in all cases: cell-based
In assay [1] the target is T1, αvβ8 (Homo sapiens, UniProt P06756+P26012).
T1 construct: expressed in transfected cells; host or cells: K562-αvβ8
The assay is described as follows: Cell Adhesion Assay αvβ8. The settings on record: K562-αvβ8 cells, ligand LAP-b1, 2 mM MgCl2; read-out: mean affinity (pIC50) αvβ8 (converted). Here is the method: (§1) The following cell lines are used, with ligands in brackets: K562-αvβ3 (LAP-b1), K562-αvβ5 (Vitronectin), K562-αvβ6 (LAP-b1), K562-αvβ8 (LAP-b1), A549-αvβ1 (LAP-b1). The divalent cation used to facilitate adhesion is 2 mM MgCl2. Adhesion is quantified by cell labelling with the fluorescent dye BCECF-AM (Life Technologies), where cell suspensions at 3×10^6cells/nnL are incubated with 0.33 uL/mL of 30 mM BCECF-AM at 37° C. for 10 minutes, then 50 μL/well are dispensed into the 96-well assay plate. At the assay conclusion cells that adhered are lysed using 50 μL/well of 0.5% Triton X-100 in H2O to release fluorescence. Fluorescence intensity is detected using an Envision® plate reader (Perkin Elmer). For active antagonists in the assay, data is fitted to a 4 parameter logistic equation for IC50 determinations.
(§2) Those of skill in the art will recognise that in vitro binding assays and cell-based assays for functional activity are subject to experimental variability.

In assay [2] the target is T2, αvβ1 (Homo sapiens, UniProt P05556+P06756).
T2 construct: host or cells: A549-αvβ1
The assay is described as follows: Cell Adhesion Assay αvβ1. The settings on record: A549-αvβ1 cells, ligand LAP-b1, 2 mM MgCl2; read-out: mean affinity (pIC50) αvβ1 (converted). Here is the method: as §1, §2

The target of assay [3] is T3, αvβ3 (Homo sapiens, UniProt P05106+P06756).
T3 construct: expressed in transfected cells; host or cells: K562-αvβ3
The assay is described as follows: Cell Adhesion Assay αvβ3. The settings on record: K562-αvβ3 cells, ligand LAP-b1, 2 mM MgCl2; read-out: mean affinity (pIC50) αvβ3 (converted). On the procedure:
as §1, §2

Assay [4] deals with T4, αvβ6 (Homo sapiens, UniProt P06756+P18564).
T4 construct: expressed in transfected cells; host or cells: K562-αvβ6
The assay is described as follows: Cell Adhesion Assay αvβ6. To be noted: K562-αvβ6 cells, ligand LAP-b1, 2 mM MgCl2; read-out: mean affinity (pIC50) αvβ6 (converted). On the procedure:
as §1, §2

Assay [5] concerns the target T5, αvβ5 (Homo sapiens, UniProt P06756+P18084).
T5 construct: expressed in transfected cells; host or cells: K562-αvβ5
The assay is described as follows: Cell Adhesion Assay αvβ5. To be noted: K562-αvβ5 cells, ligand Vitronectin, 2 mM MgCl2; read-out: mean affinity (pIC50) αvβ5 (converted). On the procedure: as §1, §2

We go through 16 molecules from patent US10487080B2, “Naphthyridines as integrin antagonists” (GlaxoSmithKline Intellectual Property Development Limited, priority 2016, dated 2019).

T3 sequence (P06756 31-889 limits assumed): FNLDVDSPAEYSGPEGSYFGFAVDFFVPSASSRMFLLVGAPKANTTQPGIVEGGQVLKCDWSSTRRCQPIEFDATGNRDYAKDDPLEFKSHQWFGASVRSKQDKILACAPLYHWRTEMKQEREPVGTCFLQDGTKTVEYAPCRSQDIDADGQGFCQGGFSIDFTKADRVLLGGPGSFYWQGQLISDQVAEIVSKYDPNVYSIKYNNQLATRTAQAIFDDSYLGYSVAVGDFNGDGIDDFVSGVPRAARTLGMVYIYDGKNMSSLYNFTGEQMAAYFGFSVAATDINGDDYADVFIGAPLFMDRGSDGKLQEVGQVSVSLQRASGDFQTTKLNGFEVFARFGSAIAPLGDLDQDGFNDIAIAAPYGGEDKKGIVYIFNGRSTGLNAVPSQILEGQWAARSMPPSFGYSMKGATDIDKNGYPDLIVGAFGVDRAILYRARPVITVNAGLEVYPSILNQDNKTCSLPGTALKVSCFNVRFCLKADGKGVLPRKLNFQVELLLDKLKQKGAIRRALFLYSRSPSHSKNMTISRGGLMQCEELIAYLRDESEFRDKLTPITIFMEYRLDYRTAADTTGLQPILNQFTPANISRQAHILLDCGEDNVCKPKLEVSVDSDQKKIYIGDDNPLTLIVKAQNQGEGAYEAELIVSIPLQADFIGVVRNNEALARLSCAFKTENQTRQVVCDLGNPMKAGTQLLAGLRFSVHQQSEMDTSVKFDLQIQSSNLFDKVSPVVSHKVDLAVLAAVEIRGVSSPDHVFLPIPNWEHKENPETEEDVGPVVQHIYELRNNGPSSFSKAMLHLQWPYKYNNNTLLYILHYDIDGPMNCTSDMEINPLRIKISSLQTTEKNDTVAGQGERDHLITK
T3 sequence (P06756 891-1048 partner limits assumed): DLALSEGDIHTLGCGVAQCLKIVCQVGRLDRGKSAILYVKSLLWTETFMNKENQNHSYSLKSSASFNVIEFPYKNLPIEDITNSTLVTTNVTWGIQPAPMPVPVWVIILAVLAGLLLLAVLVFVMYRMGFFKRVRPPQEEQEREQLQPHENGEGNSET
T3 sequence (P05106 27-788): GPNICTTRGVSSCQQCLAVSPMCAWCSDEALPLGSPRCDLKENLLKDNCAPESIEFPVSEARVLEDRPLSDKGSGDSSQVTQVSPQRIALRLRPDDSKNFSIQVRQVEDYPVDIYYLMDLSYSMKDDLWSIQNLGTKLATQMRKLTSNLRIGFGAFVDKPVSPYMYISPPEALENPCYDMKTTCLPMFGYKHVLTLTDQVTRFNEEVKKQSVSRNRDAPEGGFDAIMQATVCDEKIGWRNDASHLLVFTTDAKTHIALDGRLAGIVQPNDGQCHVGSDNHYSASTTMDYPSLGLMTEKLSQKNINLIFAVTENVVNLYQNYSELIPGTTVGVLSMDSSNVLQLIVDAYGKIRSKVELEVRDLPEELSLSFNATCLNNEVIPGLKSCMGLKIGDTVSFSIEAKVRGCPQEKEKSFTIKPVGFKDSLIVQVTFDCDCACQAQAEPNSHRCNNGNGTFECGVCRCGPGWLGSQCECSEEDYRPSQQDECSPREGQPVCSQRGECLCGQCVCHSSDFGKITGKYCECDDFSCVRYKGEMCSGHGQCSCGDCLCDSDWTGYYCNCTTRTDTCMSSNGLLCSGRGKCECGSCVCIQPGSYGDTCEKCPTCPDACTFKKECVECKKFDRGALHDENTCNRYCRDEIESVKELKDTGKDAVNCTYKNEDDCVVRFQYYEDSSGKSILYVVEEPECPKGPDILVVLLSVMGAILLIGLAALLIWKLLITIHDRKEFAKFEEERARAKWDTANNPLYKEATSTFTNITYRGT
T4 sequence (P06756 31-889 limits assumed): as the sequence (P06756 31-889 limits assumed) above
T4 sequence (P06756 891-1048 partner limits assumed): as the sequence (P06756 891-1048 partner limits assumed) above
T4 sequence (P18564 22-788): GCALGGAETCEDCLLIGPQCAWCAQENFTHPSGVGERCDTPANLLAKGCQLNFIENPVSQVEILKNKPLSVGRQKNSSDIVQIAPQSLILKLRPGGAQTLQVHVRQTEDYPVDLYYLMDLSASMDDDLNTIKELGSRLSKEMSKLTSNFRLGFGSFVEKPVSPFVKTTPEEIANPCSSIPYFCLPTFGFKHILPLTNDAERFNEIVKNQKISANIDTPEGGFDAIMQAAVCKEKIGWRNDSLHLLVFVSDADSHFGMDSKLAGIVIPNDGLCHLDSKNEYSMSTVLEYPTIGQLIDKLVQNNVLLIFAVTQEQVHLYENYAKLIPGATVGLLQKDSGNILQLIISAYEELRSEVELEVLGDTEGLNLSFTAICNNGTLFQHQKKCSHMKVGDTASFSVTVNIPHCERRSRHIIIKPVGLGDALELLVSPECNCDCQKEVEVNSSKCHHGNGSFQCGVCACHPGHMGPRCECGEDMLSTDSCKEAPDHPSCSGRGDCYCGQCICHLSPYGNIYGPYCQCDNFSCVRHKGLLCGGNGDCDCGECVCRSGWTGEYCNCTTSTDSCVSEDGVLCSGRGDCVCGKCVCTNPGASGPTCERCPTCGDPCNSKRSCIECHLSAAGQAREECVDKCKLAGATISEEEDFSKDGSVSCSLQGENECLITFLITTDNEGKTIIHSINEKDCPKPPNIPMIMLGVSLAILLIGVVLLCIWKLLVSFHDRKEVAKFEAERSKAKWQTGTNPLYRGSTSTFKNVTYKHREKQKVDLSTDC
T2 sequence (P06756 31-889 limits assumed): as the sequence (P06756 31-889 limits assumed) above
T2 sequence (P06756 891-1048 partner limits assumed): as the sequence (P06756 891-1048 partner limits assumed) above
T2 sequence (P05556 21-798): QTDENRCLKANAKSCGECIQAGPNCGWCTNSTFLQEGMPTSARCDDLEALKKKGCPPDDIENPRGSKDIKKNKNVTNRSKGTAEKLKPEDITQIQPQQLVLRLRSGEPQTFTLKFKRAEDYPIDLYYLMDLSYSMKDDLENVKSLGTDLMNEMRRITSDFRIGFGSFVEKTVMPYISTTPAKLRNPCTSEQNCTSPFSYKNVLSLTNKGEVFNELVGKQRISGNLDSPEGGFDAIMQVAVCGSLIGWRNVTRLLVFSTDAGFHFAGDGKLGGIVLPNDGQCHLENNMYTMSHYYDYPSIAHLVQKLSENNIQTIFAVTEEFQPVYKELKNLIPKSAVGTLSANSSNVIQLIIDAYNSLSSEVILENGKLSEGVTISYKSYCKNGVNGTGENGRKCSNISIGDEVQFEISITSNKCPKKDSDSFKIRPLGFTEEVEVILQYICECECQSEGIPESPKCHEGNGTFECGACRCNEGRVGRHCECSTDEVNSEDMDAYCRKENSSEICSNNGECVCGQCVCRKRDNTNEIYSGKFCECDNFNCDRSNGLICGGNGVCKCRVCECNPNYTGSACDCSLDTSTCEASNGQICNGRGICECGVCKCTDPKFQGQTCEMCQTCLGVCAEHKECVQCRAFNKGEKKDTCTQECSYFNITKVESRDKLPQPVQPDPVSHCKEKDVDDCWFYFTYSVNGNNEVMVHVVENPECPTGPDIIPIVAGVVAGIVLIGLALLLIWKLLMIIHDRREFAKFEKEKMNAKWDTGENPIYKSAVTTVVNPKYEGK
T1 sequence (P06756 31-889 limits assumed): as the sequence (P06756 31-889 limits assumed) above
T1 sequence (P06756 891-1048 partner limits assumed): as the sequence (P06756 891-1048 partner limits assumed) above
T1 sequence (P26012 43-769): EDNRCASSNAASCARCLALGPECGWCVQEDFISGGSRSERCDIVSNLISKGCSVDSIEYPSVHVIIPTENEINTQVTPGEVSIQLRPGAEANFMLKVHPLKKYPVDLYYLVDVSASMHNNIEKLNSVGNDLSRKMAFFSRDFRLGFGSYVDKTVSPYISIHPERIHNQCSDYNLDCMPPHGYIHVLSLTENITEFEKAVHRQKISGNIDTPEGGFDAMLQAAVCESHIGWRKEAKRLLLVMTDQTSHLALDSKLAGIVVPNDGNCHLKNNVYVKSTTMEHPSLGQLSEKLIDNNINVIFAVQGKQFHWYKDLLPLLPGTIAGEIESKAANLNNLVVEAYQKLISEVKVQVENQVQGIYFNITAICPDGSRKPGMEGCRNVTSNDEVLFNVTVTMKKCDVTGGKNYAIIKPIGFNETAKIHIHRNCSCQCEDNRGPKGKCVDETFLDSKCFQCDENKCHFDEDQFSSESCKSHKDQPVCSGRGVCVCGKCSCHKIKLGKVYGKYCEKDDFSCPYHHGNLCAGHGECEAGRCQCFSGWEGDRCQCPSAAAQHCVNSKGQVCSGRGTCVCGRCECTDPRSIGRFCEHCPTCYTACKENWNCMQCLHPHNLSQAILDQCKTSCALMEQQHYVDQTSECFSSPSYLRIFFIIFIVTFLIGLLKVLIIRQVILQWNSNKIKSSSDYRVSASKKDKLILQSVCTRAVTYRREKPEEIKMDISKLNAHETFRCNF

Turning to `COC(C)(C)COc1cccc([C@H](CC(=O)O)CN2CC[C@@H](CCc3ccc4c(n3)NCCC4)C2)c1` [Example 4, (S)-3-(3-(2-methoxy-2-methylpropoxy)phenyl)-4-((R)-3-(2-(5,6,7,8-tetrahydro-1,8-naphthyridin-2-yl)ethyl)pyrrolidin-1-yl)butanoic acid], the IC50 in assay [1] was 15.8 nM; in assay [2] it was 158 nM; in assay [3], 200 nM.

In the case of `COCCOc1ccc(F)c([C@H](CC(=O)O)CN2CC[C@@H](CCc3ccc4c(n3)NCCC4)C2)c1` [Example 16, (S)-3-(2-Fluoro-5-(2-methoxyethoxy)phenyl)-4-((R)-3-(2-(5,6,7,8-tetrahydro-1,8-naphthyridin-2-yl)ethyl)pyrrolidin-1-yl)butanoic acid], the IC50 in assay [1] was 100 nM; in assay [4] it was 7.94 nM.

Turning to `COCCOc1cc(OCCF)cc(C(CC(=O)O)CN2CC[C@@H](CCc3ccc4c(n3)NCCC4)C2)c1` (stereo partly drawn) [Example 18, 3-(3-(2-Fluoroethoxy)-5-(2-methoxyethoxy)phenyl)-4-((R)-3-(2-(5,6,7,8-tetrahydro-1,8-naphthyridin-2-yl)ethyl)pyrrolidin-1-yl)butanoic acid], the IC50 in assay [1] is 25.1 nM; in assay [2], 200 nM; in assay [4] it was 5.01 nM; in assay [3], 398 nM.

Take `COC[C@@H](C)Oc1cccc([C@H](CC(=O)O)CN2CC[C@@H](CCc3ccc4c(n3)NCCC4)C2)c1` [Example 12, (S)-3-(3-(((R)-1-methoxypropan-2-yl)oxy)phenyl)-4-((R)-3-(2-(5,6,7,8-tetrahydro-1,8-naphthyridin-2-yl)ethyl)pyrrolidin-1-yl)butanoic acid]: the IC50 was 251 nM in assay [3] and 63.1 nM in assay [5].

Turning to `CO[C@H](C)COc1cccc([C@H](CC(=O)O)CN2CC[C@@H](CCc3ccc4c(n3)NCCC4)C2)c1` [Example 2, (S)-3-(3-((R)-2-methoxypropoxy)phenyl)-4-((R)-3-(2-(5,6,7,8-tetrahydro-1,8-naphthyridin-2-yl)ethyl)pyrrolidin-1-yl)butanoic acid], the IC50 in assay [2] was 100 nM; in assay [4], 2.51 nM; in assay [3] it was 63.1 nM; in assay [5], 15.8 nM.

In the case of `CC(C)OCCOc1cccc([C@H](CC(=O)O)CN2CC[C@@H](CCc3ccc4c(n3)NCCC4)C2)c1` [Example 13, (S)-3-(3-(2-Isopropoxyethoxy)phenyl)-4-((R)-3-(2-(5,6,7,8-tetrahydro-1,8-naphthyridin-2-yl)ethyl)pyrrolidin-1-yl)butanoic acid], the IC50 in assay [1] was 20 nM; in assay [4] it was 10 nM; in assay [3] it was 100 nM; in assay [5], 31.6 nM.

For `COCC(C)(C)Oc1cccc([C@H](CC(=O)O)CN2CC[C@@H](CCc3ccc4c(n3)NCCC4)C2)c1` [Example 11], the IC50 was 15.8 nM in assay [1], 50.1 nM in assay [2], 316 nM in assay [3] and 63.1 nM in assay [5].

For the molecule `O=C(O)CC(CN1CC[C@@H](CCc2ccc3c(n2)NCCC3)C1)c1cccc(OCC2COC2)c1` (stereo partly drawn) [Example 20, 3-(3-(Oxetan-3-ylmethoxy)phenyl)-4-((R)-3-(2-(5,6,7,8-tetrahydro-1,8-naphthyridin-2-yl)ethyl)pyrrolidin-1-yl)butanoic acid], the IC50 in assay [1] is 20 nM; in assay [4] it was 7.94 nM; in assay [3] it was 398 nM.

As to `O=C(O)C[C@H](CN1CC[C@@H](CCc2ccc3c(n2)NCCC3)C1)c1cccc(OC[C@H]2CCCO2)c1` [Example 14, (S)-4-((R)-3-(2-(5,6,7,8-Tetrahydro-1,8-naphthyridin-2-yl)ethyl)pyrrolidin-1-yl)-3-(3-(((R)-tetrahydrofuran-2-yl)methoxy)phenyl)butanoic acid], the IC50 is 20 nM in assay [1]; 398 nM in assay [2]; 5.01 nM in assay [4]; 79.4 nM in assay [3]; 39.8 nM in assay [5].

As for `COCCOc1cccc([C@H](CC(=O)O)CN2CC[C@@H](CCc3ccc4c(n3)NCCC4)C2)c1` [Example 1, (S)-3-(3-(2-methoxyethoxy)phenyl)-4-((R)-3-(2-(5,6,7,8-tetrahydro-1,8-naphthyridin-2-yl)ethyl)pyrrolidin-1-yl)butanoic acid], the IC50 in assay [2] was 158 nM; in assay [4], 3.16 nM; in assay [5] it was 10 nM.

Consider `O=C(O)C[C@H](CN1CC[C@@H](CCc2ccc3c(n2)NCCC3)C1)c1cccc(OC[C@@H]2CCCO2)c1` [Example 15, (S)-4-((R)-3-(2-(5,6,7,8-tetrahydro-1,8-naphthyridin-2-yl)ethyl)pyrrolidin-1-yl)-3-(3-(((S)-tetra hydrofuran-2-yl)methoxy)phenyl)butanoic acid], for which the IC50 in assay [1] is 39.8 nM; in assay [2] it was 501 nM; in assay [4] it was 5.01 nM; in assay [3], 100 nM; in assay [5], 39.8 nM.

For `COCCOc1cc(OCCOC)cc([C@H](CC(=O)O)CN2CC[C@@H](CCc3ccc4c(n3)NCCC4)C2)c1` [Example 8, (S)-3-(3,5-Bis(2-methoxyethoxy)phenyl)-4-((R)-3-(2-(5,6,7,8-tetrahydro-1,8-naphthyridin-2-yl)ethyl)pyrrolidin-1-yl)butanoic acid], the IC50 in assay [1] is 20 nM; in assay [2], 200 nM; in assay [4] it was 3.16 nM; in assay [3] it was 126 nM; in assay [5] it was 31.6 nM.

As to `COCC(COC)Oc1cccc(C(CC(=O)O)CN2CC[C@@H](CCc3ccc4c(n3)NCCC4)C2)c1` (stereo partly drawn) [Example 17, 3-(3-((1,3-Dimethoxypropan-2-yl)oxy)phenyl)-4-((R)-3-(2-(5,6,7,8-tetrahydro-1,8-naphthyridin-2-yl)ethyl)pyrrolidin-1-yl)butanoic acid], the IC50 in assay [1] is 20 nM; in assay [4], 12.6 nM; in assay [3], 398 nM.

As to `COCCCOc1cccc(C(CC(=O)O)CN2CC[C@@H](CCc3ccc4c(n3)NCCC4)C2)c1` (stereo partly drawn) [Example 19, 3-(3-(3-Methoxypropoxy)phenyl)-4-((R)-3-(2-(5,6,7,8-tetrahydro-1,8-naphthyridin-2-yl)ethyl)pyrrolidin-1-yl)butanoic acid], the IC50 is 12.6 nM in assay [1], 10 nM in assay [4], 158 nM in assay [3] and 63.1 nM in assay [5].

As for `CO[C@@H](C)COc1cccc([C@H](CC(=O)O)CN2CC[C@@H](CCc3ccc4c(n3)NCCC4)C2)c1` [Example 3, (S)-3-(3-((S)-2-methoxypropoxy)phenyl)-4-((R)-3-(2-(5,6,7,8-tetrahydro-1,8-naphthyridin-2-yl)ethyl)pyrrolidin-1-yl)butanoic acid], the IC50 in assay [1] is 15.8 nM; in assay [2], 126 nM; in assay [4] it was 2.51 nM; in assay [5] it was 15.8 nM.

As for `COC[C@H](C)Oc1cccc(C(CC(=O)O)CN2CC[C@@H](CCc3ccc4c(n3)NCCC4)C2)c1` (single isomer, unassigned) [Example 5], the values for the IC50 in assay [2] and in assay [3] were 251 nM and 3160 nM, respectively.
